Measured values reported in PMC4618944, “Congo Red Interactions with Curli-Producing E. coli and Native Curli Amyloid Fibers” (PLoS ONE, 2015).

Biological target: T1, curli (CsgA amyloid fibers) (Escherichia coli, UniProt P28307)
T1 construct: native curli fibers isolated from MC4100, mature CsgA polymer (sec signal removed; native fibers may contain minor nucleator CsgB); immobilized by amine coupling for SPR
Assay: surface plasmon resonance (Biacore […]), curli immobilized on CM5 chip
Type: binding

T1 sequence (P28307 21-151): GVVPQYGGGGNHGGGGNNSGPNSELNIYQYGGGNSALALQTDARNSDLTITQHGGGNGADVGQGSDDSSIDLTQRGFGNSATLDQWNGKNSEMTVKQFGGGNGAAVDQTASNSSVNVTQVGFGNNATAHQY

Nc1c(/N=N/c2ccc(-c3ccc(/N=N/c4cc(S(=O)(=O)O)c5ccccc5c4N)cc3)cc2)cc(S(=O)(=O)O)c2ccccc12 [CR, Congo red]
Kd: 2800 nM
